{
  "source": "paper PMC5218480",
  "about": "(PLoS ONE, 2017)",
  "test_system": "MV-4-11 cells",
  "experiment": "Gene expression microarray analysis (Affymetrix PrimeView) and GSEA",
  "format": "cell-based, human",
  "design": "RFU PODN (11730768_x_at) / Fold change /veh PODN (11730768_x_at) / RFU LINC00158 (11744669_a_at) / Fold change /veh LINC00158 (11744669_a_at) / RFU DUSP10 (11751237_a_at) / Fold change /veh DUSP10 (11751237_a_at) / RFU ID3 (11757404_x_at) / Fold change /veh ID3 (11757404_x_at) / RFU PLEKHG5 (11737974_s_at) / Fold change /veh PLEKHG5 (11737974_s_at) / RFU LRRC4B (11730491_at) / Fold change /veh LRRC4B (11730491_at) / RFU GIMAP4 (11747438_a_at) / Fold change /veh GIMAP4 (11747438_a_at) / RFU KRT8 (11758183_x_at) / Fold change /veh KRT8 (11758183_x_at) / RFU CNN1 (11734310_a_at) / Fold change /veh CNN1 (11734310_a_at) / RFU VPS37D (11726825_at) / Fold change /veh VPS37D (11726825_at) / RFU C10orf10 (11716522_x_at) / Fold change /veh C10orf10 (11716522_x_at) / RFU KIR2DL2 /// KIR2DL4 /// KIR2DL5A /// KIR2DL5B /// KIR2DS1 /// KIR2DS2 /// KIR2DS3 /// KIR2DS4 /// KIR3DL3 /// KIR3DL3 /// KIR3DS1 (11738374_at) / Fold change /veh KIR2DL2 /// KIR2DL4 /// KIR2DL5A /// KIR2DL5B /// KIR2DS1 /// KIR2DS2 /// KIR2DS3 /// KIR2DS4 /// KIR3DL3 /// KIR3DL3 /// KIR3DS1 (11738374_at) / RFU C1QL1 (11718748_at) / Fold change /veh C1QL1 (11718748_at) / RFU TMPRSS4 (11747572_a_at) / Fold change /veh TMPRSS4 (11747572_a_at) / RFU HAMP (11756126_x_at) / Fold change /veh HAMP (11756126_x_at) / RFU RNFT2 (11725882_a_at) / Fold change /veh RNFT2 (11725882_a_at) / RFU NR4A2 (11747474_a_at) / Fold change /veh NR4A2 (11747474_a_at) / RFU ABCC12 (11746883_a_at) / Fold change /veh ABCC12 (11746883_a_at) / RFU TMEM136 (11760407_x_at) / Fold change /veh TMEM136 (11760407_x_at) / RFU CLDN22 /// WWC2 (11732394_at) / Fold change /veh CLDN22 /// WWC2 (11732394_at) / RFU HLA-DPB1 (11760878_x_at) / Fold change /veh HLA-DPB1 (11760878_x_at) / RFU SPINT1 (11716480_a_at) / Fold change /veh SPINT1 (11716480_a_at) / RFU GAP43 (11754022_s_at) / Fold change /veh GAP43 (11754022_s_at) / RFU A4GNT (11735810_at) / Fold change /veh A4GNT (11735810_at) / RFU PRB3 (11715151_x_at) / Fold change /veh PRB3 (11715151_x_at) / RFU TUBB4B (11761932_at) / Fold change /veh TUBB4B (11761932_at) / RFU CAPN14 (11732068_a_at) / Fold change /veh CAPN14 (11732068_a_at) / RFU TMCC2 (11721928_a_at) / Fold change /veh TMCC2 (11721928_a_at) / RFU IRGQ (11745062_a_at) / Fold change /veh IRGQ (11745062_a_at) / RFU FAM174B (11720279_a_at) / Fold change /veh FAM174B (11720279_a_at) / RFU TMPRSS4 (11748680_a_at) / Fold change /veh TMPRSS4 (11748680_a_at) / RFU FAM212B (11763350_a_at) / Fold change /veh FAM212B (11763350_a_at) / RFU PLEKHG5 (11743358_a_at) / Fold change /veh PLEKHG5 (11743358_a_at) / RFU ZSCAN30 (11745921_a_at) / Fold change /veh ZSCAN30 (11745921_a_at) / RFU CMKLR1 (11741424_a_at) / Fold change /veh CMKLR1 (11741424_a_at) / RFU LOC101060620 /// MAPK8IP1 (11723275_at) / Fold change /veh LOC101060620 /// MAPK8IP1 (11723275_at) / RFU SPTSSB (11747773_x_at) / Fold change /veh SPTSSB (11747773_x_at) / RFU PRSS12 (11739890_at) / Fold change /veh PRSS12 (11739890_at) / RFU BIN1 (11741810_x_at) / Fold change /veh BIN1 (11741810_x_at) / RFU WNT11 (11732464_a_at) / Fold change /veh WNT11 (11732464_a_at) / RFU C10orf10 (11716521_a_at) / Fold change /veh C10orf10 (11716521_a_at) / RFU C5orf56 (11738089_at) / Fold change /veh C5orf56 (11738089_at) / RFU CYB561 (11721691_x_at) / Fold change /veh CYB561 (11721691_x_at) / RFU ANKRD19P (11752326_a_at) / Fold change /veh ANKRD19P (11752326_a_at) / RFU OR2T12 /// OR2T33 /// OR2T8 (11738714_s_at) / Fold change /veh OR2T12 /// OR2T33 /// OR2T8 (11738714_s_at) / RFU VCAN (11748164_a_at) / Fold change /veh VCAN (11748164_a_at) / RFU JSRP1 (11732532_at) / Fold change /veh JSRP1 (11732532_at) / RFU KRTAP10-11 (11738290_x_at) / Fold change /veh KRTAP10-11 (11738290_x_at) / RFU MYO3A (11730013_a_at) / Fold change /veh MYO3A (11730013_a_at) / RFU EBF3 (11725865_a_at) / Fold change /veh EBF3 (11725865_a_at) / RFU CAMK2N1 (11719241_x_at) / Fold change /veh CAMK2N1 (11719241_x_at) / RFU C5orf56 (11738088_a_at) / Fold change /veh C5orf56 (11738088_a_at) / RFU OLFML3 (11715873_a_at) / Fold change /veh OLFML3 (11715873_a_at) / RFU LOC100653217 /// NTM (11731650_a_at) / Fold change /veh LOC100653217 /// NTM (11731650_a_at) / RFU MAPK11 (11762145_a_at) / Fold change /veh MAPK11 (11762145_a_at) / RFU FIZ1 (11724087_x_at) / Fold change /veh FIZ1 (11724087_x_at) / RFU OASL (11726364_x_at) / Fold change /veh OASL (11726364_x_at) / RFU SOX15 (11748057_x_at) / Fold change /veh SOX15 (11748057_x_at) / RFU CD79A (11719716_a_at) / Fold change /veh CD79A (11719716_a_at) / RFU HIST1H1D (11736915_at) / Fold change /veh HIST1H1D (11736915_at) / RFU CASKIN2 (11723855_a_at) / Fold change /veh CASKIN2 (11723855_a_at) / RFU LOC730098 (11760151_x_at) / Fold change /veh LOC730098 (11760151_x_at) / RFU OR4N2 (11742367_at) / Fold change /veh OR4N2 (11742367_at) / RFU PRRT2 (11749266_a_at) / Fold change /veh PRRT2 (11749266_a_at) / RFU SNX32 (11753110_a_at) / Fold change /veh SNX32 (11753110_a_at) / RFU CDHR5 (11726645_a_at) / Fold change /veh CDHR5 (11726645_a_at) / RFU RCAN1 (11760418_a_at) / Fold change /veh RCAN1 (11760418_a_at) / RFU FAM167A (11723789_a_at) / Fold change /veh FAM167A (11723789_a_at) / RFU FAM26E (11764081_at) / Fold change /veh FAM26E (11764081_at) / RFU ISYNA1 (11749810_s_at) / Fold change /veh ISYNA1 (11749810_s_at) / RFU ACY1 (11761880_at) / Fold change /veh ACY1 (11761880_at) / RFU 11764098_at / Fold change /veh 11764098_at / RFU SAMD14 (11745864_x_at) / Fold change /veh SAMD14 (11745864_x_at) / RFU NPB (11741838_a_at) / Fold change /veh NPB (11741838_a_at) / RFU TMPRSS6 (11731388_a_at) / Fold change /veh TMPRSS6 (11731388_a_at) / RFU KRTAP10-2 (11738614_at) / Fold change /veh KRTAP10-2 (11738614_at) / RFU ARHGAP8 /// PRR5-ARHGAP8 (11727945_x_at) / Fold change /veh ARHGAP8 /// PRR5-ARHGAP8 (11727945_x_at) / RFU KRTAP5-7 /// NADSYN1 (11734609_at) / Fold change /veh KRTAP5-7 /// NADSYN1 (11734609_at) / RFU RASL12 (11751679_a_at) / Fold change /veh RASL12 (11751679_a_at) / RFU CDKN2B (11736163_a_at) / Fold change /veh CDKN2B (11736163_a_at) / RFU PRF1 (11729649_at) / Fold change /veh PRF1 (11729649_at) / RFU, ZNF638 /// ZNF638-IT1 / Fold change vs veh, ZNF638 /// ZNF638-IT1 / RFU, PANK3 / Fold change vs veh, PANK3 / RFU, SH3YL1 / Fold change vs veh, SH3YL1 / RFU, ZEB2 / Fold change vs veh, ZEB2 / RFU, NRIP1 / Fold change vs veh, NRIP1 / RFU, PTTG1IP / Fold change vs veh, PTTG1IP / RFU, CAPN2 / Fold change vs veh, CAPN2 / RFU, MED14 / Fold change vs veh, MED14 / RFU, SNORA58 / Fold change vs veh, SNORA58 / RFU, C1orf63 / Fold change vs veh, C1orf63 / RFU, LRRFIP1 / Fold change vs veh, LRRFIP1 / RFU, NDUFAF7 / Fold change vs veh, NDUFAF7 / RFU, SLC12A2 / Fold change vs veh, SLC12A2 / RFU, IBTK / Fold change vs veh, IBTK / RFU, ESF1 / Fold change vs veh, ESF1 / Fold change vs veh, TMEM50B / RFU, TAOK1 / Fold change vs veh, TAOK1 / RFU, ACBD3 / Fold change vs veh, ACBD3 / RFU, TMA16 / Fold change vs veh, TMA16 / RFU, RWDD3 / Fold change vs veh, RWDD3 / RFU, BCAT1 / Fold change vs veh, BCAT1 / RFU, EDEM3 / Fold change vs veh, EDEM3 / RFU, TMEM33 / Fold change vs veh, TMEM33 / RFU, WDR75 / Fold change vs veh, WDR75 / RFU, AHCTF1 / Fold change vs veh, AHCTF1 / RFU, TFRC / Fold change vs veh, TFRC / RFU, ZDHHC17 / Fold change vs veh, ZDHHC17 / RFU, NOM1 / Fold change vs veh, NOM1 / RFU, ARL8B / Fold change vs veh, ARL8B / RFU, ZBTB11 / Fold change vs veh, ZBTB11 / RFU, TAMM41 / Fold change vs veh, TAMM41 / RFU, KIAA1704 /// LOC100996395 / Fold change vs veh, KIAA1704 /// LOC100996395 / RFU, ING1 / Fold change vs veh, ING1 / RFU, TRMT61B / Fold change vs veh, TRMT61B / RFU, FUBP3 / Fold change vs veh, FUBP3 / RFU, TP53 / Fold change vs veh, TP53 / RFU, TNKS2 / Fold change vs veh, TNKS2 / RFU, ZFP14 / Fold change vs veh, ZFP14 / RFU, ACTR2 / Fold change vs veh, ACTR2 / RFU, PPP3R1 / Fold change vs veh, PPP3R1 / RFU, PIK3R1 / Fold change vs veh, PIK3R1 / RFU, HNRNPA1 / Fold change vs veh, HNRNPA1 / RFU, RNF170 / Fold change vs veh, RNF170 / RFU, ZNF28 / Fold change vs veh, ZNF28 / RFU, RNGTT / Fold change vs veh, RNGTT / RFU, OGT / Fold change vs veh, OGT / RFU, BRD1 / Fold change vs veh, BRD1 / RFU, MARS / Fold change vs veh, MARS / RFU, ZNF655 / Fold change vs veh, ZNF655 / RFU, FAHD1 / Fold change vs veh, FAHD1 / RFU, BDP1 / Fold change vs veh, BDP1 / RFU, LRRCC1 / Fold change vs veh, LRRCC1 / RFU, ARID1A / Fold change vs veh, ARID1A / RFU, ZNF146 / Fold change vs veh, ZNF146 / RFU, ZNF330 / Fold change vs veh, ZNF330 / RFU, GPN3 / Fold change vs veh, GPN3 / RFU, C9orf123 / Fold change vs veh, C9orf123 / RFU, N4BP2L2 / Fold change vs veh, N4BP2L2 / RFU, ARFIP1 / Fold change vs veh, ARFIP1 / RFU, FAM179B / Fold change vs veh, FAM179B / RFU, BCL10 / Fold change vs veh, BCL10 / RFU, UHRF1BP1L / Fold change vs veh, UHRF1BP1L / RFU, BET1 / Fold change vs veh, BET1 / RFU, CNOT2 / Fold change vs veh, CNOT2 / RFU, ZNF268 / Fold change vs veh, ZNF268 / Fold change vs veh, ZNF507 / RFU, DGCR2 / Fold change vs veh, DGCR2 / RFU, WDSUB1 / Fold change vs veh, WDSUB1 / Fold change vs veh, HSP90B1 /// MIR3652 / RFU, ADSS / Fold change vs veh, ADSS / RFU, GK / Fold change vs veh, GK / RFU, ZNF148 / Fold change vs veh, ZNF148 / RFU, TAF9 / Fold change vs veh, TAF9 / RFU, SLC1A5 / Fold change vs veh, SLC1A5 / RFU, SLMO2 / Fold change vs veh, SLMO2 / RFU, ABCC4 / Fold change vs veh, ABCC4 / RFU, LOC101060439 /// RAP1B / Fold change vs veh, LOC101060439 /// RAP1B / RFU, RFX7 / Fold change vs veh, RFX7 / RFU, GTPBP10 / Fold change vs veh, GTPBP10 / RFU, CNEP1R1 / Fold change vs veh, CNEP1R1 / RFU, BIVM-ERCC5 /// ERCC5 / Fold change vs veh, BIVM-ERCC5 /// ERCC5 / RFU, ILF3 / Fold change vs veh, ILF3 / RFU 11762660_at / Fold change /veh 11762660_at / RFU VCAN (11757783_s_at) / Fold change /veh VCAN (11757783_s_at) / RFU DDX43 (11728927_at) / Fold change /veh DDX43 (11728927_at) / RFU KRT8 (11758188_x_at) / Fold change /veh KRT8 (11758188_x_at) / RFU NKD1 (11759106_at) / Fold change /veh NKD1 (11759106_at) / RFU SRD5A1 (11742802_a_at) / Fold change /veh SRD5A1 (11742802_a_at) / RFU TPSAB1 /// TPSB2 (11721975_s_at) / Fold change /veh TPSAB1 /// TPSB2 (11721975_s_at) / RFU GSTM3 (11746129_a_at) / Fold change /veh GSTM3 (11746129_a_at) / RFU IL23R (11737362_x_at) / Fold change /veh IL23R (11737362_x_at) / RFU TMEM51 (11727254_a_at) / Fold change /veh TMEM51 (11727254_a_at) / RFU PIWIL2 (11732686_x_at) / Fold change /veh PIWIL2 (11732686_x_at) / RFU ORM1 (11744905_x_at) / Fold change /veh ORM1 (11744905_x_at) / RFU CCDC152 (11743942_at) / Fold change /veh CCDC152 (11743942_at) / RFU ECM1 (11717891_a_at) / Fold change /veh ECM1 (11717891_a_at) / RFU IL23R (11748794_a_at) / Fold change /veh IL23R (11748794_a_at) / RFU TNFAIP8L3 (11732012_x_at) / Fold change /veh TNFAIP8L3 (11732012_x_at) / RFU MBOAT4 (11741988_at) / Fold change /veh MBOAT4 (11741988_at) / RFU 11764193_at / Fold change /veh 11764193_at / RFU TMEM53 (11763286_at) / Fold change /veh TMEM53 (11763286_at) / RFU MAGEB2 (11727129_at) / Fold change /veh MAGEB2 (11727129_at) / RFU TMEM200A (11744735_a_at) / Fold change /veh TMEM200A (11744735_a_at) / RFU CCDC152 (11751479_a_at) / Fold change /veh CCDC152 (11751479_a_at) / RFU FAM211A (11726209_a_at) / Fold change /veh FAM211A (11726209_a_at) / RFU RGS16 (11746705_a_at) / Fold change /veh RGS16 (11746705_a_at) / RFU VCAN (11755009_s_at) / Fold change /veh VCAN (11755009_s_at) / RFU RHOB (11743442_s_at) / Fold change /veh RHOB (11743442_s_at) / RFU RGS16 (11720943_a_at) / Fold change /veh RGS16 (11720943_a_at) / RFU RGS16 (11720944_at) / Fold change /veh RGS16 (11720944_at) / RFU, VPS4B / Fold change vs veh, VPS4B / RFU, CREB1 / Fold change vs veh, CREB1 / RFU, DNAJC13 / Fold change vs veh, DNAJC13 / RFU, GNAQ / Fold change vs veh, GNAQ / RFU, CDK5R1 / Fold change vs veh, CDK5R1 / RFU, ZRANB3 / Fold change vs veh, ZRANB3 / RFU, CUL4A / Fold change vs veh, CUL4A / RFU, CCNY / Fold change vs veh, CCNY / RFU, UFL1 / Fold change vs veh, UFL1 / RFU, COG3 / Fold change vs veh, COG3 / RFU, DIAPH2 / Fold change vs veh, DIAPH2 / RFU, SKA2 / Fold change vs veh, SKA2 / RFU, AFF3 / Fold change vs veh, AFF3 / RFU, LMF1 / Fold change vs veh, LMF1 / RFU, IPO11 / Fold change vs veh, IPO11 / RFU, DFFB / Fold change vs veh, DFFB / RFU, FOXP1 / Fold change vs veh, FOXP1 / RFU, CARD8 / Fold change vs veh, CARD8 / RFU, STRN3 / Fold change vs veh, STRN3 / RFU, ADK / Fold change vs veh, ADK / RFU, RASSF2 / Fold change vs veh, RASSF2 / RFU, WIPF1 / Fold change vs veh, WIPF1 / RFU, LARP1B / Fold change vs veh, LARP1B / RFU, RASA1 / Fold change vs veh, RASA1 / RFU, RB1 / Fold change vs veh, RB1 / RFU, PPFIA1 / Fold change vs veh, PPFIA1 / RFU, MAT2A / Fold change vs veh, MAT2A / RFU, CCT5 / Fold change vs veh, CCT5 / RFU, WDR92 / Fold change vs veh, WDR92 / RFU, CUX1 / Fold change vs veh, CUX1 / RFU, TTC7A / Fold change vs veh, TTC7A / RFU, TMEM135 / Fold change vs veh, TMEM135 / RFU, DEPTOR / Fold change vs veh, DEPTOR / RFU, CPM / Fold change vs veh, CPM / RFU, DNAJB6 / Fold change vs veh, DNAJB6 / RFU, CACNA2D3 / Fold change vs veh, CACNA2D3 / RFU, DTX4 / Fold change vs veh, DTX4 / RFU, TFCP2 / Fold change vs veh, TFCP2 / RFU, GMCL1 /// GMCL1P1 / Fold change vs veh, GMCL1 /// GMCL1P1 / RFU, AEBP2 / Fold change vs veh, AEBP2 / RFU, SNHG1 /// SNORD22 /// SNORD25 /// SNORD26 /// SNORD27 /// SNORD28 /// SNORD29 /// SNORD31 / Fold change vs veh, SNHG1 /// SNORD22 /// SNORD25 /// SNORD26 /// SNORD27 /// SNORD28 /// SNORD29 /// SNORD31 / Fold change (Aza/veh), C12orf56 (ProbeSet 11735607_a_at) / Fold change (ACY-1035/veh), C12orf56 (ProbeSet 11735607_a_at) / Fold change (Aza/veh), FGFR1OP (ProbeSet 11751329_s_at) / Fold change (ACY-1035/veh), FGFR1OP (ProbeSet 11751329_s_at) / Fold change (Aza/veh), VPS36 (ProbeSet 11739960_a_at) / Fold change (ACY-1035/veh), VPS36 (ProbeSet 11739960_a_at) / RFU SYPL1 (11715823_x_at) / Fold change /veh SYPL1 (11715823_x_at) / RFU IGFBP7 (11715501_s_at) / Fold change /veh IGFBP7 (11715501_s_at) / RFU REEP3 (11722064_at) / Fold change /veh REEP3 (11722064_at) / RFU IGLL1 (11728026_x_at) / Fold change /veh IGLL1 (11728026_x_at): dose or concentration left out as unconfirmed",
  "details": "ProbeSet 11757268_x_at; LIST B",
  "data": [
    {"smiles": "Nc1ccc(-c2cccs2)cc1NC(=O)c1ccc2c(c1)cc(C1CC1)n2CCN1CCOCC1", "note": "[ACY-1035]", "values": [
      {"measurement": "Fold change vs veh, HNRNPA1", "value": 0.97}
    ]}
  ]
}
